# Results reported in ChEMBL document CHEMBL1240407, “Prevalence, resistance mechanisms, and susceptibility of multidrug-resistant bloodstream isolates of Pseudomonas aeruginosa” (2010).
# Legend:
# Type in all cases: functional
# Pseudomonas aeruginosa [1] = experiment: Antimicrobial activity against Pseudomonas aeruginosa isolate PA27853 by Etest method
# Pseudomonas aeruginosa [2] = experiment: Antimicrobial activity against Pseudomonas aeruginosa isolate PA5441 harboring gyrA T83I and parC S87L mutant gene by Etest method
# Pseudomonas aeruginosa [3] = experiment: Antimicrobial activity against Pseudomonas aeruginosa isolate PA5513 harboring gyrA T83I and parC S87L mutant gene by Etest method
# Pseudomonas aeruginosa [4] = experiment: Antimicrobial activity against Pseudomonas aeruginosa isolate PA5600 harboring gyrA T83I and parC S87L mutant gene by Etest method
# Pseudomonas aeruginosa [5] = experiment: Antimicrobial activity against MexB overexpressing Pseudomonas aeruginosa isolate PA6218 harboring gyrA D87N mutant gene by Etest method
# Pseudomonas aeruginosa [6] = experiment: Antimicrobial activity against Pseudomonas aeruginosa isolate PA7461 harboring gyrA T83I and parC S87L mutant gene by Etest method
# Pseudomonas aeruginosa [7] = experiment: Antimicrobial activity against MexB overexpressing Pseudomonas aeruginosa isolate PA8108 harboring gyrA T83I mutant gene by Etest method
# Pseudomonas aeruginosa [8] = experiment: Antimicrobial activity against Pseudomonas aeruginosa isolate PA8119 harboring gyrA T83I and parC S87L mutant gene by Etest method
# Pseudomonas aeruginosa [9] = experiment: Antimicrobial activity against Pseudomonas aeruginosa isolate PA8721 harboring gyrA T83I and parC S87L mutant gene by Etest method
# Pseudomonas aeruginosa [10] = experiment: Antimicrobial activity against Pseudomonas aeruginosa isolate PA8858 harboring gyrA T83I and parC S87L mutant gene by Etest method
# Pseudomonas aeruginosa [11] = experiment: Antimicrobial activity against Pseudomonas aeruginosa isolate PA9019 harboring gyrA D87G and parC S87L mutant gene by Etest method
# Pseudomonas aeruginosa [12] = experiment: Antimicrobial activity against MexB overexpressing Pseudomonas aeruginosa isolate PA9087 harboring gyrA T83I mutant gene by Etest method
# Pseudomonas aeruginosa [13] = experiment: Antimicrobial activity against Pseudomonas aeruginosa isolate PA641 parC P105T mutant gene by Etest method
# Pseudomonas aeruginosa [14] = experiment: Antimicrobial activity against MexB overexpressing Pseudomonas aeruginosa isolate PA707 harboring gyrA T83I and parC S87L mutant gene by Etest method
# Pseudomonas aeruginosa [15] = experiment: Antimicrobial activity against MexB overexpressing Pseudomonas aeruginosa isolate PA1165 harboring gyrA T83I and parC S87L mutant gene by Etest method
# Pseudomonas aeruginosa [16] = experiment: Antimicrobial activity against Pseudomonas aeruginosa isolate PA1166 harboring gyrA T83I and parC S87L mutant gene by Etest method
# Pseudomonas aeruginosa [17] = experiment: Antimicrobial activity against MexB overexpressing Pseudomonas aeruginosa isolate PA1327 harboring gyrA T83I and parC S87L mutant gene by Etest method
# Pseudomonas aeruginosa [18] = experiment: Antimicrobial activity against MexB overexpressing Pseudomonas aeruginosa isolate PA1328 harboring gyrA T83I and parC S87L mutant gene by Etest method
# Pseudomonas aeruginosa [19] = experiment: Antimicrobial activity against MexB overexpressing Pseudomonas aeruginosa isolate PA1378 harboring gyrA T83I mutant gene by Etest method
Compound,MIC50 (Pseudomonas aeruginosa [1]) [µg/mL],MIC50 (Pseudomonas aeruginosa [2]) [µg/mL],MIC50 (Pseudomonas aeruginosa [4]) [µg/mL],MIC50 (Pseudomonas aeruginosa [6]) [µg/mL],MIC50 (Pseudomonas aeruginosa [8]) [µg/mL],MIC50 (Pseudomonas aeruginosa [10]) [µg/mL],MIC50 (Pseudomonas aeruginosa [12]) [µg/mL],MIC50 (Pseudomonas aeruginosa [15]) [µg/mL],MIC50 (Pseudomonas aeruginosa [16]) [µg/mL],MIC50 (Pseudomonas aeruginosa [17]) [µg/mL],MIC50 (Pseudomonas aeruginosa [18]) [µg/mL],MIC50 (Pseudomonas aeruginosa [3]) [µg/mL],MIC50 (Pseudomonas aeruginosa [5]) [µg/mL],MIC50 (Pseudomonas aeruginosa [7]) [µg/mL],MIC50 (Pseudomonas aeruginosa [9]) [µg/mL],MIC50 (Pseudomonas aeruginosa [11]) [µg/mL],MIC50 (Pseudomonas aeruginosa [13]) [µg/mL],MIC50 (Pseudomonas aeruginosa [14]) [µg/mL],MIC50 (Pseudomonas aeruginosa [19]) [µg/mL],further results
C[C@@H](O)[C@H]1C(=O)N2C(C(=O)O)=C(S[C@@H]3CN[C@H](CNS(N)(=O)=O)C3)[C@H](C)[C@H]12 [DORIPENEM],0.19,4,4,12,16,8,6,12,24,8,3,–,–,–,–,–,–,–,–,MIC90 (Pseudomonas aeruginosa [3]): > 32 µg/mL; MIC90 (Pseudomonas aeruginosa [5]): > 32 µg/mL; MIC90 (Pseudomonas aeruginosa [7]): > 32 µg/mL; MIC90 (Pseudomonas aeruginosa [9]): 32 µg/mL; MIC90 (Pseudomonas aeruginosa [11]): > 32 µg/mL; MIC90 (Pseudomonas aeruginosa [13]): > 32 µg/mL; MIC90 (Pseudomonas aeruginosa [14]): > 32 µg/mL; MIC90 (Pseudomonas aeruginosa [19]): > 32 µg/mL
COLISTIN,1.5,1.5,1,2,1.5,1.5,0.38,1.5,1,2,1.5,1,3,0.25,1.5,1.5,1.5,1,2,–
POLYMYXIN B,1.5,1.5,1.5,–,1.5,–,0.5,1.5,0.75,1,1.5,1,1.5,0.25,1.5,1,1,0.75,1.5,–
